# Test results: article PMC4142213 (Nature, 2014)
# System: DIO mice
# Test: OGTT with co-administration of 6bK and sitagliptin
# Type: in vivo, mouse
# Conditions: OGTT 3.0 g kg^-1, sitagliptin 4 mg kg^-1 oral, 6bK 40 mg kg^-1
structure (smiles),measurement,value
N[C@@H](CC(=O)N1CCn2c(nnc2C(F)(F)F)C1)Cc1cc(F)c(F)cc1F [sitagliptin],reduction of blood glucose profile area compared to vehicle,60–64%
